Results taken from BindingDB's records for patent US11866405 (Astrazeneca, 2024).
pIC50: −log10 of the molar value.

Biological target: T1, Interleukin-1 receptor-associated kinase 4 (Homo sapiens, UniProt Q9NWZ3)
T1 sequence (Q9NWZ3 whole entry): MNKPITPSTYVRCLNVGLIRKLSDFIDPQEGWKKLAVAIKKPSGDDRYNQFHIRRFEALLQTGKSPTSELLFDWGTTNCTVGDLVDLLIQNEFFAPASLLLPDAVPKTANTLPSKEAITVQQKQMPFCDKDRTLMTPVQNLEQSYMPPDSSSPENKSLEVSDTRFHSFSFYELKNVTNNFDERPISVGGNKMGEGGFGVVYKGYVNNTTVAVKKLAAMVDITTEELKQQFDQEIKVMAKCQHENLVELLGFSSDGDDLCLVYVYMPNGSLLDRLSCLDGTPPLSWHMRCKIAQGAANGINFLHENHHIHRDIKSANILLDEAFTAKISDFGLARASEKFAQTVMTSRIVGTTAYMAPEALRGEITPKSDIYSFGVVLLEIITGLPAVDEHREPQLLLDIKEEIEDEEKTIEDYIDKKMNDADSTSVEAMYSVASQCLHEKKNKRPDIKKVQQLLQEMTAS
Assay: Potency of IRAK4 Inhibitor Compounds in IRAK4 Enzyme Assay
Method: The inhibitory activity of compounds against IRAK4 were determined in an enzymatic assay using mass spectrometry readout. Ten point half-log compound concentration response curves, with a top concentration of 1 μM or 10 μM, were generated from 10 mM stocks of compound solubilized in DMSO using an Echo 655 (Labcyte Inc) and added to 384 well assay plates (Greiner #781280). To the assay plates, 10 μL of human recombinant IRAK4 protein (Life Technologies #PV4002) diluted to a final concentration of 0.2 nM in assay buffer (50 mM Tris-HCl pH 7.4, 10 mM MgCl, 5 mM glutathione, 0.01% BSA, 3 mM ATP) was added. The enzyme was incubated with the compounds at room temperature for 15 minutes before a peptide substrate ([…], Innovagen custom synthesis, 10 mM in DMSO) was added to each well to a final concentration of 10 μM using an Echo 655 (Labcyte Inc). After two hours at room temperature, the reaction was stopped with 90 μL of 0.4% formic acid (Merck #33015). The unphosphorylated and phosphorylated peptide were measured by LC-MS/MS on a Waters TQ-S mass spectrometer. Peaks were integrated using the TargetLynx software and the ratios between phosphorylated and unphosphorylated peptides were calculated.

| Compound | pIC50 |
| --- | --- |
| COc1cc2nn([C@H]3CC[C@H](N(C)C(=O)[C@H](C)O)CC3)cc2cc1C(=O)Nc1cnc2cccnn12 [US11866405, Example 94] | 9.52 |
| COc1cc2nn([C@H]3CCC[C@H](O)[C@@H]3C)cc2cc1C(=O)Nc1cnc2cccnn12 (relative stereo) [US11866405, Example 106] | 9.22 |
| COc1cc2nn([C@H]3CC[C@H](N(C)C(=O)[C@@H]4CC[C@H](O)C4)CC3)cc2cc1C(=O)Nc1cnn2cccnc12 (relative stereo) [US11866405, Example 115] | 9.10 |

Now from value to compound:

| pIC50 | Compound |
| --- | --- |
| 9.15 | COc1cc2nn([C@@H]3CC[C@]4(CCC(=O)N4C)C[C@H]3C)cc2cc1C(=O)Nc1cnc2cccnn12 (relative stereo; form 2) [US11866405, Example 122] |
| 9.22 | C[C@@]1(O)CCC[C@H](n2cc3cc(C(=O)Nc4cnn5cccnc45)c(OC4CC4)cc3n2)C1 (relative stereo) [US11866405, Example 54] |
| 8.20 | COc1cc2nn([C@H]3CC[C@H](O)C[C@@H]3C)cc2cc1C(=O)Nc1cnn2cccnc12 [US11866405, Example 40] |
| 8.85 | C[C@H]1C[C@@H](O)CC[C@@H]1n1cc2cc(C(=O)Nc3cnn4cccnc34)c(OC3CC3)cc2n1 [US11866405, Example 45] |
